Experimental data taken from PubChem BioAssay (NCI).
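Each compound was tested at five concentrations against cells in 96-well plates for 48 hours. Here, GI50 denotes the concentration required for 50% inhibition of growth. The concentration for full growth arrest is given as TGI.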

Legend:
Assay in all cases: growth of human tumour cells (NCI), 48 h
786-0 renal = tested on: 786-0 renal
A498 renal = tested on: A498 renal
A549 NSCLC = tested on: A549 NSCLC
ACHN renal = tested on: ACHN renal
BT-549 breast = tested on: BT-549 breast
CAKI-1 renal = tested on: CAKI-1 renal
CCRF-CEM leukemia = tested on: CCRF-CEM leukemia
COLO 205 colon = tested on: COLO 205 colon
DU-145 prostate = tested on: DU-145 prostate
EKVX NSCLC = tested on: EKVX NSCLC
HCC-2998 colon = tested on: HCC-2998 colon
HCT-116 colon = tested on: HCT-116 colon
HCT-15 colon = tested on: HCT-15 colon
HL-60(TB) leukemia = tested on: HL-60(TB) leukemia
HOP-62 NSCLC = tested on: HOP-62 NSCLC
HOP-92 NSCLC = tested on: HOP-92 NSCLC
HS 578T breast = tested on: HS 578T breast
HT29 colon = tested on: HT29 colon
IGROV1 ovarian = tested on: IGROV1 ovarian
K-562 leukemia = tested on: K-562 leukemia
KM12 colon = tested on: KM12 colon
LOX IMVI melanoma = tested on: LOX IMVI melanoma
M14 melanoma = tested on: M14 melanoma
MALME-3M melanoma = tested on: MALME-3M melanoma
MCF7 breast = tested on: MCF7 breast
MDA-MB-231 breast = tested on: MDA-MB-231 breast
MDA-MB-435 = tested on: MDA-MB-435
MDA-MB-468 breast = tested on: MDA-MB-468 breast
MOLT-4 leukemia = tested on: MOLT-4 leukemia
NCI-H226 lung = tested on: NCI-H226 lung
NCI-H23 lung = tested on: NCI-H23 lung
NCI-H460 lung = tested on: NCI-H460 lung
NCI-H522 lung = tested on: NCI-H522 lung
NCI/ADR-RES ovarian = tested on: NCI/ADR-RES ovarian
OVCAR-3 ovarian = tested on: OVCAR-3 ovarian
OVCAR-4 ovarian = tested on: OVCAR-4 ovarian
OVCAR-5 ovarian = tested on: OVCAR-5 ovarian
OVCAR-8 ovarian = tested on: OVCAR-8 ovarian
PC-3 prostate = tested on: PC-3 prostate
RPMI-8226 leukemia = tested on: RPMI-8226 leukemia
RXF 393 renal = tested on: RXF 393 renal
SF-268 CNS = tested on: SF-268 CNS
SF-295 CNS = tested on: SF-295 CNS
SF-539 CNS = tested on: SF-539 CNS
SK-MEL-2 melanoma = tested on: SK-MEL-2 melanoma
SK-MEL-28 melanoma = tested on: SK-MEL-28 melanoma
SK-MEL-5 melanoma = tested on: SK-MEL-5 melanoma
SK-OV-3 ovarian = tested on: SK-OV-3 ovarian
SN12C renal = tested on: SN12C renal
SNB-19 CNS = tested on: SNB-19 CNS
SNB-75 CNS = tested on: SNB-75 CNS
SR leukemia = tested on: SR leukemia
SW-620 colon = tested on: SW-620 colon
T-47D breast = tested on: T-47D breast
TK-10 renal = tested on: TK-10 renal
U251 CNS = tested on: U251 CNS
UACC-257 melanoma = tested on: UACC-257 melanoma
UACC-62 melanoma = tested on: UACC-62 melanoma
UO-31 renal = tested on: UO-31 renal

With `CC12OOC(C)(OO1)C2CCC(=O)NCCCNc1ccnc2cc(Cl)ccc12` (stereo not drawn) the GI50 (786-0 renal) was 3.5 µM, the TGI (786-0 renal) was 7.16 µM and the GI50 (A498 renal) was > 20 µM. The TGI (A498 renal) was > 20 µM, the GI50 (A549 NSCLC) was 4.22 µM and the TGI (A549 NSCLC) was 9.86 µM. The GI50 (ACHN renal) was 3.45 µM, the TGI (ACHN renal) was 6.22 µM and the GI50 (BT-549 breast) was > 20 µM. For the same molecule, the TGI (BT-549 breast) was > 20 µM, the GI50 (CAKI-1 renal) was 3.31 µM and the TGI (CAKI-1 renal) was 6.07 µM. The GI50 (CCRF-CEM leukemia) was 4.51 µM, the TGI (CCRF-CEM leukemia) was 14.1 µM and the GI50 (COLO 205 colon) was 3.69 µM. The TGI (COLO 205 colon) was 7.68 µM, the GI50 (DU-145 prostate) was 3.58 µM and the TGI (DU-145 prostate) was 6.52 µM. For the same molecule, the GI50 (EKVX NSCLC) was 3.8 µM, the TGI (EKVX NSCLC) was 7.99 µM and the GI50 (HCC-2998 colon) was > 20 µM. For the same molecule, the TGI (HCC-2998 colon) was > 20 µM, the GI50 (HCT-116 colon) was 5.56 µM and the TGI (HCT-116 colon) was 17.6 µM. For the same molecule, the GI50 (HCT-15 colon) was 4.03 µM, the TGI (HCT-15 colon) was 9.17 µM and the GI50 (HL-60(TB) leukemia) was 3.6 µM. The TGI (HL-60(TB) leukemia) was 8.63 µM, the GI50 (HOP-62 NSCLC) was > 20 µM and the TGI (HOP-62 NSCLC) was > 20 µM. For the same molecule, the GI50 (HOP-92 NSCLC) was 3.34 µM, the TGI (HOP-92 NSCLC) was 6.87 µM and the GI50 (HS 578T breast) was > 20 µM. For the same molecule, the TGI (HS 578T breast) was > 20 µM, the GI50 (HT29 colon) was 3.86 µM and the TGI (HT29 colon) was 7.47 µM. For the same molecule, the GI50 (IGROV1 ovarian) was 7.07 µM, the TGI (IGROV1 ovarian) was > 20 µM and the GI50 (K-562 leukemia) was 4.28 µM. For the same molecule, the TGI (K-562 leukemia) was 10.1 µM, the GI50 (KM12 colon) was > 20 µM and the TGI (KM12 colon) was > 20 µM. The GI50 (LOX IMVI melanoma) was 3.06 µM, the TGI (LOX IMVI melanoma) was 5.85 µM and the GI50 (M14 melanoma) was 3.66 µM. The TGI (M14 melanoma) was 7.4 µM, the GI50 (MALME-3M melanoma) was 3.35 µM and the TGI (MALME-3M melanoma) was 6.31 µM. The GI50 (MCF7 breast) was 8.11 µM, the TGI (MCF7 breast) was > 20 µM and the GI50 (MDA-MB-231 breast) was 8.26 µM. For the same molecule, the TGI (MDA-MB-231 breast) was > 20 µM, the GI50 (MDA-MB-435) was 4.84 µM and the TGI (MDA-MB-435) was 16.2 µM. It also gave a GI50 (MDA-MB-468 breast) of 3.6 µM, a TGI (MDA-MB-468 breast) of 8.97 µM and a GI50 (MOLT-4 leukemia) of 8.6 µM. The TGI (MOLT-4 leukemia) was > 20 µM, the GI50 (NCI-H226 lung) was > 20 µM and the TGI (NCI-H226 lung) was > 20 µM. The GI50 (NCI-H23 lung) was > 20 µM, the TGI (NCI-H23 lung) was > 20 µM and the GI50 (NCI-H460 lung) was 12.7 µM. For the same molecule, the TGI (NCI-H460 lung) was > 20 µM, the GI50 (NCI-H522 lung) was 2.66 µM and the TGI (NCI-H522 lung) was 5.59 µM. The GI50 (NCI/ADR-RES ovarian) was > 20 µM, the TGI (NCI/ADR-RES ovarian) was > 20 µM and the GI50 (OVCAR-3 ovarian) was 2.97 µM. The TGI (OVCAR-3 ovarian) was 5.83 µM, the GI50 (OVCAR-4 ovarian) was 3.19 µM and the TGI (OVCAR-4 ovarian) was 6.64 µM. For the same molecule, the GI50 (OVCAR-5 ovarian) was > 20 µM, the TGI (OVCAR-5 ovarian) was > 20 µM and the GI50 (OVCAR-8 ovarian) was > 20 µM. The TGI (OVCAR-8 ovarian) was > 20 µM, the GI50 (PC-3 prostate) was > 20 µM and the TGI (PC-3 prostate) was > 20 µM. The GI50 (RPMI-8226 leukemia) was 9.51 µM, the TGI (RPMI-8226 leukemia) was > 20 µM and the GI50 (RXF 393 renal) was 3.69 µM. For the same molecule, the TGI (RXF 393 renal) was 9.56 µM, the GI50 (SF-268 CNS) was > 20 µM and the TGI (SF-268 CNS) was > 20 µM. The GI50 (SF-295 CNS) was > 20 µM, the TGI (SF-295 CNS) was > 20 µM and the GI50 (SF-539 CNS) was 11.3 µM. For the same molecule, the TGI (SF-539 CNS) was > 20 µM, the GI50 (SK-MEL-2 melanoma) was > 20 µM and the TGI (SK-MEL-2 melanoma) was > 20 µM. For the same molecule, the GI50 (SK-MEL-28 melanoma) was > 20 µM, the TGI (SK-MEL-28 melanoma) was > 20 µM and the GI50 (SK-MEL-5 melanoma) was > 20 µM. For the same molecule, the TGI (SK-MEL-5 melanoma) was > 20 µM, the GI50 (SK-OV-3 ovarian) was > 20 µM and the TGI (SK-OV-3 ovarian) was > 20 µM. The GI50 (SN12C renal) was > 20 µM, the TGI (SN12C renal) was > 20 µM and the GI50 (SNB-19 CNS) was > 20 µM. For the same molecule, the TGI (SNB-19 CNS) was > 20 µM, the GI50 (SNB-75 CNS) was > 20 µM and the TGI (SNB-75 CNS) was > 20 µM. It also gave a GI50 (SR leukemia) of 3.88 µM, a TGI (SR leukemia) of 8.71 µM and a GI50 (SW-620 colon) of 4.3 µM. For the same molecule, the TGI (SW-620 colon) was > 20 µM, the GI50 (T-47D breast) was 4.35 µM and the TGI (T-47D breast) was 13.4 µM. For the same molecule, the GI50 (TK-10 renal) was 4.62 µM, the TGI (TK-10 renal) was 14.5 µM and the GI50 (U251 CNS) was > 20 µM. For the same molecule, the TGI (U251 CNS) was > 20 µM, the GI50 (UACC-257 melanoma) was 9.4 µM and the TGI (UACC-257 melanoma) was > 20 µM. For the same molecule, the GI50 (UACC-62 melanoma) was 12.6 µM, the TGI (UACC-62 melanoma) was > 20 µM and the GI50 (UO-31 renal) was 3.1 µM. The TGI (UO-31 renal) was 5.78 µM.
